The target of the experiment is IDH1 R132H (Homo sapiens, UniProt O75874, R132H). As to the kind of experiment: Assay for IDH1 R132H inhibitors (NADPH/aKG, resazurin detection). The experiment is classed as biochemical. The settings on record: Table 3; enzyme assay, 50 minutes at room temperature; read-out: IC50 (IDH1 R132H Inhibition). In outline: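 Compound added to substrate mix (8 uM NADPH, 2 mM aKG), then enzyme mix (0.2 μg/ml IDH1 R132H); 50 min RT in 20 mM Tris pH 7.5, 150 mM NaCl, 10 mM MgCl2, 0.03% BSA. Resazurin detection mix (30 μM) 5 min RT; resorufin fluorescence Ex544/Em590.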
IDH1 R132H, sequence (O75874 whole entry R132H): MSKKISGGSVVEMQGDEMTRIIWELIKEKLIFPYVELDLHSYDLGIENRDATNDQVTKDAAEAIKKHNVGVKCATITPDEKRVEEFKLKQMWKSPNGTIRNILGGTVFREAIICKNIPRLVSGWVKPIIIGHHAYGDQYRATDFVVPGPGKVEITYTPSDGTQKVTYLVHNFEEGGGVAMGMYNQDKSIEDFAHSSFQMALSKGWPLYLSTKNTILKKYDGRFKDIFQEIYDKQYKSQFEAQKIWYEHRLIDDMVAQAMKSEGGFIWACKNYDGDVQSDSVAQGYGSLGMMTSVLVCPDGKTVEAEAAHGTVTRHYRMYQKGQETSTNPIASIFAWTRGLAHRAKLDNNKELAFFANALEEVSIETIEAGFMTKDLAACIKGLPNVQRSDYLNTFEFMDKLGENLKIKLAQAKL
A general note: Alamar Blue is a resazurin reagent that responds to reducing activity.

This passage reports IC50 results from US9856279B2 (AGIOS PHARMACEUTICALS, INC, priority 2011, dated 2018).

pIC50: −log10 of the molar value.

By pIC50 is commonly meant −log10 of the IC50, conventionally taken in molar units.

On to `COCCC(=O)N1CCN(c2nc(C3CC3)c(-c3cccc(F)c3)cc2C#N)C[C@H]1C` [Compound 229, (R)-6-cyclopropyl-5-(3-fluorophenyl)-2-(4-(3-methoxypropanoyl)-3-methylpiperazin-1-yl)nicotinonitrile], for which the pIC50 is not below 6.00.
The same measure for `COCCC(=O)N1CCN(c2nc(C(C)C)c(-c3cccc(OC(F)(F)F)c3)cc2C#N)C[C@H]1C` [Compound 230, (R)-6-isopropyl-2-(4-(3-methoxypropanoyl)-3-methylpiperazin-1-yl)-5-(3-(trifluoromethoxy)phenyl)nicotinonitrile]: 5.30 to 6.00.
Consider `COCCC(=O)N1CCN(c2nc(C(C)C)c(-c3cccc(F)c3)cc2C#N)C[C@H]1C` [Compound 231, (R)-5-(3-fluorophenyl)-6-isopropyl-2-(4-(3-methoxypropanoyl)-3-methylpiperazin-1-yl)nicotinonitrile], for which the pIC50 is 5.30 to 6.00.
The figure for `COCCC(=O)N1CCN(c2nc(C(C)C)c(-c3ccc(OC(F)(F)F)cc3)cc2C#N)C[C@H]1C` [Compound 232, (R)-6-isopropyl-2-(4-(3-methoxypropanoyl)-3-methylpiperazin-1-yl)-5-(4-(trifluoromethoxy)phenyl)nicotinonitrile] is 5.30 to 6.00; for `COCCC(=O)N1CCN(c2nc(C(C)C)c(-c3ccc4c(c3)OCCO4)cc2C#N)C[C@H]1C` [Compound 233, (R)-5-(2,3-dihydrobenzo[b][1,4]dioxin-6-yl)-6-isopropyl-2-(4-(3-methoxypropanoyl)-3-methylpiperazin-1-yl)nicotinonitrile] it is 5.30 to 6.00; for `COCCC(=O)N1CCN(c2nc(C(C)C)c(-c3cncc4ccccc34)cc2C#N)C[C@H]1C` [Compound 234, (R)-6-isopropyl-5-(isoquinolin-4-yl)-2-(4-(3-methoxypropanoyl)-3-methylpiperazin-1-yl)nicotinonitrile] it is not below 6.00.
The same measure for `COCCC(=O)N1CCN(c2nc(C3CC3)c(-c3ccc(C)c(F)c3)cc2C#N)C[C@H]1C` [Compound 235, (R)-6-cyclopropyl-5-(3-fluoro-4-methylphenyl)-2-(4-(3-methoxypropanoyl)-3-methylpiperazin-1-yl)nicotinonitrile]: not below 6.00; for `COCCC(=O)N1CCN(c2nc(C3CC3)c(-c3cccc(OC)c3)cc2C#N)C[C@H]1C` [Compound 236, (R)-6-cyclopropyl-5-(3-methoxyphenyl)-2-(4-(3-methoxypropanoyl)-3-methylpiperazin-1-yl)nicotinonitrile]: not below 6.00; for `COCCC(=O)N1CCN(c2nc(C3CC3)c(-c3ccc(OC)c(OC)c3)cc2C#N)C[C@H]1C` [Compound 237, (R)-6-cyclopropyl-5-(3,4-dimethoxyphenyl)-2-(4-(3-methoxypropanoyl)-3-methylpiperazin-1-yl)nicotinonitrile]: 5.30 to 6.00.
For the molecule `COCCC(=O)N1CCN(c2nc(C(C)C)c(Cc3ccccc3)cc2C#N)C[C@H]1C` [Compound 239, (R)-5-benzyl-6-isopropyl-2-(4-(3-methoxypropanoyl)-3-methylpiperazin-1-yl)nicotinonitrile], the pIC50 is 5.30 to 6.00.
For `COCCC(=O)N1CCN(c2nc(-c3ccccc3)c(-c3ccccc3)cc2C#N)C[C@H]1C` [Compound 240, (R)-2-(4-(3-methoxypropanoyl)-3-methylpiperazin-1-yl)-5,6-diphenylnicotinonitrile], the pIC50 was 5.30 to 6.00.
As for `COCCC(=O)N1CCN(c2nc(C3CC3)c(-c3ccc(F)cc3)c(C)c2C#N)C[C@H]1C` [Compound 241, (R)-6-cyclopropyl-5-(4-fluorophenyl)-2-(4-(3-methoxypropanoyl)-3-methylpiperazin-1-yl)-4-methylnicotinonitrile], the pIC50 was not below 6.00.
Consider `COCCC(=O)N1CCN(c2nc(C3CC3)c(-c3cncc4ccccc34)cc2C#N)C[C@H]1C` [Compound 242, (R)-6-cyclopropyl-5-(isoquinolin-4-yl)-2-(4-(3-methoxypropanoyl)-3-methylpiperazin-1-yl)nicotinonitrile], for which the pIC50 was not below 6.00.
